Results published in patent US20230365592A1 (Agios Pharmaceuticals, Inc., priority 2022, published 2023).

target: T1, human PAH with the R408W mutation (Homo sapiens, UniProt P00439, R408W); experiment: Cell Based Phenylalanine Flux Assay; conditions: A375 cells expressing human PAH R408W; 24 hrs compound incubation; 13C-Tyrosine by LC-MS; average where tested multiple times; read-out: AC50;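 also: after compound treatment, cells received sepiapterin plus isotope-labelled Phenylalanine for 4 hours, then labelled Tyrosine in the medium was quantified, 10-point 2-fold dilution series run in duplicate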
T1 construct: expressed in transfected cells
T1 sequence (P00439 1-452 R408W): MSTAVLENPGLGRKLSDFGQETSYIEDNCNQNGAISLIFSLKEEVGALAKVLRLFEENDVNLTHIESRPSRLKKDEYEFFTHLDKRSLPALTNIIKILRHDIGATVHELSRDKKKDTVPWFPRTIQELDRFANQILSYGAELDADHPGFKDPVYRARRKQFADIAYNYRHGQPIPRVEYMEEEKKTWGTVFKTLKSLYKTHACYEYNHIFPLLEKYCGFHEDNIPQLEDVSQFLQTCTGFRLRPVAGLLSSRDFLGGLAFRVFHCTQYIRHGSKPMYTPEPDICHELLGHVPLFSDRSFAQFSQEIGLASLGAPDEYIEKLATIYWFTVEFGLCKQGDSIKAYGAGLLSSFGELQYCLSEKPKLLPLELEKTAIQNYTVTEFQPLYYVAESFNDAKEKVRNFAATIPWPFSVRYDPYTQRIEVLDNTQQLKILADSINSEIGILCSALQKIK

SMILES | AC50 [nM]
CC(C)c1cccn2nc([C@H]3c4nc[nH]c4CCN3C(=O)c3nnc(-c4ccccn4)o3)cc12 [Example 1904, (R)-(4-(4-isopropylpyrazolo[1,5-a]pyridin-2-yl)-1,4,6,7-tetrahydro-5H-imidazo[4,5-c]pyridin-5-yl)(5-(pyridin-2-yl)-1,3,4-oxadiazol-2-yl)methanone] | > 5000
CC(C)c1cccn2nc([C@@H]3c4nc[nH]c4CCN3C(=O)c3nnc(-c4ccccn4)o3)cc12 [Example 1905, (S)-(4-(4-isopropylpyrazolo[1,5-a]pyridin-2-yl)-1,4,6,7-tetrahydro-5H-imidazo[4,5-c]pyridin-5-yl)(5-(pyridin-2-yl)-1,3,4-oxadiazol-2-yl)methanone] | < 500
O=C(c1nnc(C2CC2)o1)N1CCc2[nH]cnc2[C@H]1c1cc2c(Br)cccn2n1 [Example 1908, (S)-(4-(4-bromopyrazolo[1,5-a]pyridin-2-yl)-1,4,6,7-tetrahydro-5H-imidazo[4,5-c]pyridin-5-yl)(5-cyclopropyl-1,3,4-oxadiazol-2-yl)methanone] | < 500
FC(F)(F)c1ccc(N2CCc3[nH]cnc3[C@H]2c2cc3ccccn3n2)nc1 [Example 1914, (S)-4-(pyrazolo[1,5-a]pyridin-2-yl)-5-(5-(trifluoromethyl)pyridin-2-yl)-4,5,6,7-tetrahydro-1H-imidazo[4,5-c]pyridine] | < 500
FC(F)(F)c1ccc(N2CCc3[nH]cnc3[C@@H]2c2cc3ccccn3n2)nc1 [Example 1915, (R)-4-(pyrazolo[1,5-a]pyridin-2-yl)-5-(5-(trifluoromethyl)pyridin-2-yl)-4,5,6,7-tetrahydro-1H-imidazo[4,5-c]pyridine] | > 5000
FC(F)c1cccn2nc([C@H]3c4nc[nH]c4CCN3c3ccc(C(F)(F)F)cn3)cc12 [Example 1917, (R)-4-(4-(difluoromethyl)pyrazolo[1,5-a]pyridin-2-yl)-5-(5-(trifluoromethyl)pyridin-2-yl)-4,5,6,7-tetrahydro-1H-imidazo[4,5-c]pyridine] | > 5000
Cc1cccn2nc([C@@H]3c4nc[nH]c4CCN3C(=O)c3cnc(C4CC4)o3)cc12 [Example 1918, (S)-(2-cyclopropyloxazol-5-yl)(4-(4-methylpyrazolo[1,5-a]pyridin-2-yl)-1,4,6,7-tetrahydro-5H-imidazo[4,5-c]pyridin-5-yl)methanone] | 500 to 1000
O=C(c1nnc(-c2cnn(C(F)(F)F)c2)o1)N1CCc2[nH]cnc2[C@H]1c1cc2c(C3CC3)cccn2n1 [Example 1928, (S)-(4-(4-cyclopropylpyrazolo[1,5-a]pyridin-2-yl)-1,4,6,7-tetrahydro-5H-imidazo[4,5-c]pyridin-5-yl)(5-(1-(trifluoromethyl)-1H-pyrazol-4-yl)-1,3,4-oxadiazol-2-yl)methanone] | 500 to 1000
O=C(c1nnc(-c2ccn(C(F)F)n2)o1)N1CCc2[nH]cnc2[C@H]1c1cc2c(C3CC3)cccn2n1 [Example 1930, (S)-(4-(4-cyclopropylpyrazolo[1,5-a]pyridin-2-yl)-1,4,6,7-tetrahydro-5H-imidazo[4,5-c]pyridin-5-yl)(5-(1-(difluoromethyl)-1H-pyrazol-3-yl)-1,3,4-oxadiazol-2-yl)methanone] | < 500
O=C(c1nnc(-c2ccn(C(F)F)n2)o1)N1CCc2[nH]cnc2[C@@H]1c1cc2c(C3CC3)cccn2n1 [Example 1931, (R)-(4-(4-cyclopropylpyrazolo[1,5-a]pyridin-2-yl)-1,4,6,7-tetrahydro-5H-imidazo[4,5-c]pyridin-5-yl)(5-(1-(difluoromethyl)-1H-pyrazol-3-yl)-1,3,4-oxadiazol-2-yl)methanone] | > 5000
Cc1cc(-c2nnc(C(=O)N3CCc4[nH]cnc4[C@@H]3c3cc4c(C5CC5)cccn4n3)o2)nn1C [Example 1932, (R)-(4-(4-cyclopropylpyrazolo[1,5-a]pyridin-2-yl)-1,4,6,7-tetrahydro-5H-imidazo[4,5-c]pyridin-5-yl)(5-(1,5-dimethyl-1H-pyrazol-3-yl)-1,3,4-oxadiazol-2-yl)methanone] | > 5000
Cc1cc(-c2nnc(C(=O)N3CCc4[nH]cnc4[C@H]3c3cc4c(C5CC5)cccn4n3)o2)nn1C [Example 1933, (S)-(4-(4-cyclopropylpyrazolo[1,5-a]pyridin-2-yl)-1,4,6,7-tetrahydro-5H-imidazo[4,5-c]pyridin-5-yl)(5-(1,5-dimethyl-1H-pyrazol-3-yl)-1,3,4-oxadiazol-2-yl)methanone] | 500 to 1000
CC(C)c1cccn2nc([C@H]3c4nc[nH]c4CCN3C(=O)c3nnc(-c4cnn(C(F)F)c4)o3)cc12 [Example 1937, (R)-(5-(1-(difluoromethyl)-1H-pyrazol-4-yl)-1,3,4-oxadiazol-2-yl)(4-(4-isopropylpyrazolo[1,5-a]pyridin-2-yl)-1,4,6,7-tetrahydro-5H-imidazo[4,5-c]pyridin-5-yl)methanone] | 1000 to 5000
Cc1cccn2nc([C@H]3c4nc[nH]c4CCN3c3ccc(C(F)(F)F)cn3)cc12 [Example 1940, (R)-4-(4-methylpyrazolo[1,5-a]pyridin-2-yl)-5-(5-(trifluoromethyl)pyridin-2-yl)-4,5,6,7-tetrahydro-1H-imidazo[4,5-c]pyridine] | > 5000
Fc1cccn2nc([C@@H]3c4nc[nH]c4CCN3c3ccc(C(F)(F)F)cn3)cc12 [Example 1943, (S)-4-(4-fluoropyrazolo[1,5-a]pyridin-2-yl)-5-(5-(trifluoromethyl)pyridin-2-yl)-4,5,6,7-tetrahydro-1H-imidazo[4,5-c]pyridine] | < 500
Cc1cccn2nc([C@@H]3c4nc[nH]c4CCN3C(=O)c3ocnc3C3CC3)cc12 [Example 1944, (S)-(4-cyclopropyloxazol-5-yl)(4-(4-methylpyrazolo[1,5-a]pyridin-2-yl)-1,4,6,7-tetrahydro-5H-imidazo[4,5-c]pyridin-5-yl)methanone] | < 500
CC(C)c1cccn2nc([C@@H]3c4nc[nH]c4CCN3C(=O)c3nnc(-c4cnn(C(F)(F)F)c4)o3)cc12 [Example 1946, (S)-(4-(4-isopropylpyrazolo[1,5-a]pyridin-2-yl)-1,4,6,7-tetrahydro-5H-imidazo[4,5-c]pyridin-5-yl)(5-(1-(trifluoromethyl)-1H-pyrazol-4-yl)-1,3,4-oxadiazol-2-yl)methanone] | < 500

Further lines, results first:

AC50 [nM] | SMILES
> 5000 | CC(C)c1cccn2nc([C@H]3c4nc[nH]c4CCN3C(=O)c3nnc(-c4ncccc4F)o3)cc12 [Example 1907, (R)-(5-(3-fluoropyridin-2-yl)-1,3,4-oxadiazol-2-yl)(4-(4-isopropylpyrazolo[1,5-a]pyridin-2-yl)-1,4,6,7-tetrahydro-5H-imidazo[4,5-c]pyridin-5-yl)methanone]
< 500 | O=C(c1nnc(-c2ccccn2)o1)N1CCc2[nH]cnc2[C@H]1c1cc2c(Br)cccn2n1 [Example 1911, (S)-(4-(4-bromopyrazolo[1,5-a]pyridin-2-yl)-1,4,6,7-tetrahydro-5H-imidazo[4,5-c]pyridin-5-yl)(5-(pyridin-2-yl)-1,3,4-oxadiazol-2-yl)methanone]
< 500 | FC(F)c1cccn2nc([C@@H]3c4nc[nH]c4CCN3c3ccc(C(F)(F)F)cn3)cc12 [Example 1916, (S)-4-(4-(difluoromethyl)pyrazolo[1,5-a]pyridin-2-yl)-5-(5-(trifluoromethyl)pyridin-2-yl)-4,5,6,7-tetrahydro-1H-imidazo[4,5-c]pyridine]
< 500 | CCc1cccn2nc([C@@H]3c4nc[nH]c4CCN3C(=O)c3nnc(C(C)(C)F)o3)cc12 [Example 1922, (S)-(4-(4-ethylpyrazolo[1,5-a]pyridin-2-yl)-1,4,6,7-tetrahydro-5H-imidazo[4,5-c]pyridin-5-yl)(5-(2-fluoropropan-2-yl)-1,3,4-oxadiazol-2-yl)methanone]
> 5000 | CCc1cccn2nc([C@H]3c4nc[nH]c4CCN3C(=O)c3nnc(-c4cnn(C)c4)o3)cc12 [Example 1925, (R)-(4-(4-ethylpyrazolo[1,5-a]pyridin-2-yl)-1,4,6,7-tetrahydro-5H-imidazo[4,5-c]pyridin-5-yl)(5-(1-methyl-1H-pyrazol-4-yl)-1,3,4-oxadiazol-2-yl)methanone]
> 5000 | CCc1cccn2nc([C@H]3c4nc[nH]c4CCN3C(=O)c3nnc(-c4ccn(C)n4)o3)cc12 [Example 1926, (R)-(4-(4-ethylpyrazolo[1,5-a]pyridin-2-yl)-1,4,6,7-tetrahydro-5H-imidazo[4,5-c]pyridin-5-yl)(5-(1-methyl-1H-pyrazol-3-yl)-1,3,4-oxadiazol-2-yl)methanone]
< 500 | CC(C)c1cccn2nc([C@@H]3c4nc[nH]c4CCN3C(=O)c3nnc(-c4cnccn4)o3)cc12 [Example 1934, (S)-(4-(4-isopropylpyrazolo[1,5-a]pyridin-2-yl)-1,4,6,7-tetrahydro-5H-imidazo[4,5-c]pyridin-5-yl)(5-(pyrazin-2-yl)-1,3,4-oxadiazol-2-yl)methanone]
< 500 | Cc1cccn2nc([C@@H]3c4nc[nH]c4CCN3c3ccc(C(F)(F)F)cn3)cc12 [Example 1941, (S)-4-(4-methylpyrazolo[1,5-a]pyridin-2-yl)-5-(5-(trifluoromethyl)pyridin-2-yl)-4,5,6,7-tetrahydro-1H-imidazo[4,5-c]pyridine]
1000 to 5000 | Cc1cccn2nc([C@H]3c4nc[nH]c4CCN3C(=O)c3ocnc3C3CC3)cc12 [Example 1945, (R)-(4-cyclopropyloxazol-5-yl)(4-(4-methylpyrazolo[1,5-a]pyridin-2-yl)-1,4,6,7-tetrahydro-5H-imidazo[4,5-c]pyridin-5-yl)methanone]
